Among the data in PubChem BioAssay AID330 (DTP/NCI, 2004) are T/C values, retold here.

The test system of this test is P388 leukemia ip, CD2F1 mice, survival T/C. Kind of test: NCI In Vivo Anticancer Drug Screen. Data for tumor model P388 Leukemia (intraperitoneal) in CD2F1 (CDF1) mice. Conditions: endpoint: median survival time, higher = longer survival. In outline: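 Mice carrying the transplanted tumor received test compound or vehicle. Survival was recorded in each group, and the value is the treated-group measurement divided by that of the vehicle-treated control group.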

Where [1] appears, read: dose: 50.0 mg/kg/injection, schedule: Q01DX005 (ip), vehicle: Klucel (hydroxypropylcellulose) (HPC).
Setting [2] is: dose: 100.0 mg/kg/injection, schedule: Q01DX005 (ip), vehicle: Klucel (hydroxypropylcellulose) (HPC).
The mark [3] stands for this setting: dose: 50.0 mg/kg/injection, schedule: Q01DX005 (ip), vehicle: saline with Tween-80.
The mark [4] stands for this setting: dose: 100.0 mg/kg/injection, schedule: Q01DX005 (ip), vehicle: saline with Tween-80.
Where [5] appears, read: dose: 50.0 mg/kg/injection, schedule: Q01DX009 (ip), vehicle: Klucel (hydroxypropylcellulose) (HPC).
The mark [6] stands for this setting: dose: 100.0 mg/kg/injection, schedule: Q01DX009 (ip), vehicle: Klucel (hydroxypropylcellulose) (HPC).
Setting [7] is: dose: 200.0 mg/kg/injection, schedule: Q01DX009 (ip), vehicle: Klucel (hydroxypropylcellulose) (HPC).
Setting [8] is: dose: 60.0 mg/kg/injection, schedule: Q01DX005 (ip), vehicle: saline with Tween-80.
The mark [9] stands for this setting: dose: 50.0 mg/kg/injection, schedule: Q01DX005 (ip), vehicle: saline.
Where [10] appears, read: dose: 100.0 mg/kg/injection, schedule: Q01DX005 (ip), vehicle: saline.
[11] abbreviates: dose: 200.0 mg/kg/injection, schedule: Q01DX005 (ip), vehicle: saline.
Where [12] appears, read: dose: 200.0 mg/kg/injection, schedule: Q01DX005 (ip), vehicle: Klucel (hydroxypropylcellulose) (HPC).
The mark [13] stands for this setting: dose: 50.0 mg/kg/injection, schedule: Q01DX009 (ip), vehicle: saline.
[14] abbreviates: dose: 100.0 mg/kg/injection, schedule: Q01DX009 (ip), vehicle: saline.
The mark [15] stands for this setting: dose: 200.0 mg/kg/injection, schedule: Q01DX009 (ip), vehicle: saline.
[16] abbreviates: dose: 200.0 mg/kg/injection, schedule: Q01DX005 (ip), vehicle: saline with Tween-80.
Setting [17] is: dose: 100.0 mg/kg/injection, schedule: Q01DX009 (ip), vehicle: saline with Tween-80.
Where [18] appears, read: dose: 200.0 mg/kg/injection, schedule: Q01DX009 (ip), vehicle: saline with Tween-80.

Several values for one entry are separate records, joined by “and”; a condition that tells them apart may be missing. Identical values can stand only once. Toxic doses and inconclusive results are not listed. Numbered stars: 1 amine (or outer) side, 2 acyl side, 3 side chain; on linkers, the order of the positions; unused ones are H or OH. Bridge positions count the residues as written; N and C are the ends. Square brackets hold non-standard residues; d marks the D form. Peptide text beside a SMILES is read from it. I, II: the chains in the order shown. Actinocin(9to1) = Cc1c2oc3c(C)ccc(C(=O)[*:1])c3nc-2c(C(=O)[*:2])c(N)c1=O; NMeV = CN[CH](C(=O)O)C(C)C; Sar = CNCC(=O)O

Take `CCCCC1SC2=NCCN2C1(O)c1ccc(Cl)cc1` (stereo not drawn): the T/C is 113 % of control under setting [1] and 109 % of control under setting [2].
Turning to `NC(=N/C(=C/c1ccccc1)c1ccccc1)c1ccccc1`, the T/C is, setting by setting: under setting [3], 92 % of control; under setting [4], 102 % of control.
In the case of `CSc1nc(N)c(C(=O)N(c2ccccc2)c2ccccc2)s1`, the T/C under setting [5] was 100 % of control, the T/C under setting [6] is 108 % of control and the T/C under setting [7] was 98 % of control.
`Nc1[nH]c(=S)ncc1-c1ccccc1Cl`: the T/C is, setting by setting: under setting [8], 98 % of control; (dose: 120.0 mg/kg/injection, schedule: Q01DX005 (ip), vehicle: saline with Tween-80) 95 % of control; (dose: 240.0 mg/kg/injection, schedule: Q01DX005 (ip), vehicle: saline with Tween-80) 93 % of control.
In the case of `CCOC(=O)NN(C(=O)OCC)C(C(=O)C1CCCCC1)N(NC(=O)OCC)C(=O)OCC`, the T/C is, setting by setting: under setting [5], 102 % of control; under setting [6], 100 % of control; under setting [7], 96 % of control.
On to `COCCCOC(=O)NCCCCC(N)C(=O)O` (stereo not drawn), for which the T/C is, setting by setting: under setting [9], 98 % of control; under setting [10], 106 % of control; under setting [11], 100 % of control.
Regarding `CCOC(=O)\C(C#N)=C/C=C(C)/C(C)=C/Nc1ccc([N+](=O)[O-])cc1[N+](=O)[O-]`, the T/C is, setting by setting: under setting [1], 101 % of control; under setting [2], 91 % of control; under setting [12], 91 % of control.
With `CNc1nc(N)nc(Nc2ccc(I)cc2)c1N=O`, the T/C (dose: 100.0 mg/kg/injection, schedule: Q04DX003 (ip), vehicle: saline with Tween-80) is 109 % of control; the T/C (dose: 200.0 mg/kg/injection, schedule: Q04DX003 (ip), vehicle: saline with Tween-80) is 109 % of control; the T/C (dose: 400.0 mg/kg/injection, schedule: Q04DX003 (ip), vehicle: saline with Tween-80) was 109 % of control.
As for `Cc1ccc(NC(=S)C#N)c(C)c1`, the T/C runs as follows: (dose: 15.0 mg/kg/injection, schedule: Q01DX005 (ip), vehicle: saline with Tween-80) 102 % of control; (dose: 30.0 mg/kg/injection, schedule: Q01DX005 (ip), vehicle: saline with Tween-80) 98 % of control; under setting [8], 98 % of control and 106 % of control.
On to `Cc1ccc(O)c[n+]1[O-]`, for which the T/C reads like this: (dose: 25.0 mg/kg/injection, schedule: Q01DX009 (ip), vehicle: saline) 101 % of control; under setting [13], 100 % of control and 105 % of control; under setting [14], 102 % of control and 97 % of control; under setting [15], 105 % of control and 117 % of control; (dose: 400.0 mg/kg/injection, schedule: Q01DX009 (ip), vehicle: saline) 108 % of control and 109 % of control.
As to `O=C(NCCCBr)c1csc(-c2csc(CCNC(=O)C(F)(F)F)n2)n1`, the T/C (dose: 6.25 mg/kg/injection, schedule: Q01DX005 (ip), vehicle: saline with Tween-80) was 89 % of control; the T/C (dose: 12.5 mg/kg/injection, schedule: Q01DX005 (ip), vehicle: saline with Tween-80) is 104 % of control; the T/C (dose: 25.0 mg/kg/injection, schedule: Q01DX005 (ip), vehicle: saline with Tween-80) was 95 % of control; the T/C under setting [3] is 97 % of control; the T/C under setting [4] is 90 % of control; the T/C under setting [16] is 87 % of control.
As to `CN(C)N1Cc2ccccc2NC1=O`, the T/C was 102 % of control under setting [1], 96 % of control under setting [2] and 110 % of control under setting [12].
For `CC12Cc3ccccc3CC1OCN1CN2COC2Cc3ccccc3CC21C` (stereo not drawn), the T/C under setting [9] was 105 % of control, the T/C under setting [10] was 98 % of control and the T/C under setting [11] is 90 % of control.
On to `CC(C)=CCc1c(-c2ccc(O)cc2O)oc2c([C@H]3C=C(C)CC(c4ccc(O)cc4O)[C@@H]3C(=O)c3ccc(O)cc3O)c(O)cc(O)c2c1=O` (stereo partly drawn), for which the T/C reads like this: (dose: 8.75 mg/kg/injection, schedule: Q01DX005 (ip), vehicle: Klucel (hydroxypropylcellulose) (HPC)) 99 % of control; (dose: 17.5 mg/kg/injection, schedule: Q01DX005 (ip), vehicle: Klucel (hydroxypropylcellulose) (HPC)) 98 % of control; (dose: 35.0 mg/kg/injection, schedule: Q01DX005 (ip), vehicle: Klucel (hydroxypropylcellulose) (HPC)) 92 % of control; (dose: 70.0 mg/kg/injection, schedule: Q01DX005 (ip), vehicle: Klucel (hydroxypropylcellulose) (HPC)) 92 % of control; (dose: 140.0 mg/kg/injection, schedule: Q01DX005 (ip), vehicle: Klucel (hydroxypropylcellulose) (HPC)) 108 % of control.
As to `COc1c(OC(C)=O)ccc2c1C=CCCC2=O`, the T/C under setting [17] was 104 % of control; the T/C under setting [18] was 102 % of control; the T/C (dose: 400.0 mg/kg/injection, schedule: Q01DX009 (ip), vehicle: saline with Tween-80) was 102 % of control.
In the case of `Cc1ccc2c(c1)S(=O)(=O)c1ccc3ccccc3c1N2`, the T/C was 101 % of control under setting [3], 99 % of control under setting [4] and 100 % of control under setting [16].
`Cc1c2oc3c(C)ccc(C(=O)NC4C(=O)NC(C(C)C)C(=O)N5CCCC5C(=O)N(C)CC(=O)N(C)C(C(C)C)C(=O)OC4C)c3nc-2c(C(=O)NC2C(=O)NC(C(C)C)C(=O)N3CCCC3C(=O)N(C)CC(=O)N(C)C(C(C)C)C(=O)OC2C)c(N)c1=O` (stereo not drawn) (I: TVP[Sar][NMeV] / II: TVP[Sar][NMeV]; ester I:1-I:C, II:1-II:C; linker I:N-II:N via Actinocin(9to1); configuration not given here): the T/C is, setting by setting: (dose: 0.1 mg/kg/injection, schedule: Q01DX009 (ip), vehicle: distilled water + Tween-80) 178 % of control; (dose: 0.2 mg/kg/injection, schedule: Q01DX009 (ip), vehicle: distilled water + Tween-80) 190 % of control; (dose: 0.2 mg/kg/injection, schedule: Q01DX009 (ip), vehicle: water) 151 % of control; (dose: 0.4 mg/kg/injection, schedule: Q01DX009 (ip), vehicle: distilled water + Tween-80) 207 % of control; (dose: 0.4 mg/kg/injection, schedule: Q01DX009 (ip), vehicle: water) 174 % of control.
For the compound `C1=C2CCc3ccc(o3)CCC(=C1)O2`, the T/C reads like this: under setting [3], 100 % of control; under setting [4], 94 % of control; under setting [16], 93 % of control.
In the case of `O=c1[nH]c(=O)c2nc(-c3cccc([N+](=O)[O-])c3)cnc2[nH]1`, the T/C reads like this: (dose: 100.0 mg/kg/injection, schedule: Q04DX002 (ip), vehicle: saline) 101 % of control; (dose: 200.0 mg/kg/injection, schedule: Q04DX002 (ip), vehicle: saline) 113 % of control; (dose: 400.0 mg/kg/injection, schedule: Q04DX002 (ip), vehicle: saline) 106 % of control.
As for `Nc1cc([N+](=O)[O-])ccc1O`, the T/C is, setting by setting: under setting [14], 102 % of control and 105 % of control; under setting [15], 101 % of control; (dose: 600.0 mg/kg/injection, schedule: Q01DX009 (ip), vehicle: saline) 91 % of control.
With `CCCN(CCC)CN(CCC)CCC`, the T/C runs as follows: under setting [13], 106 % of control; under setting [14], 105 % of control.
As to `CN(CCO)c1cnn(CCO)c(=O)c1Cl`, the T/C is, setting by setting: (dose: 60.0 mg/kg/injection, schedule: Q01DX005 (ip), vehicle: saline) 102 % of control; (dose: 120.0 mg/kg/injection, schedule: Q01DX005 (ip), vehicle: saline) 105 % of control; (dose: 240.0 mg/kg/injection, schedule: Q01DX005 (ip), vehicle: saline) 102 % of control.
Turning to `O=C(O)CCCOc1ccc(Cl)cc1Cl`, the T/C (dose: 100.0 mg/kg/injection, schedule: Q04DX003 (ip), vehicle: saline) was 109 % of control; the T/C (dose: 200.0 mg/kg/injection, schedule: Q04DX003 (ip), vehicle: saline) was 100 % of control; the T/C (dose: 400.0 mg/kg/injection, schedule: Q04DX003 (ip), vehicle: saline) is 100 % of control.
As to `N#CC1(C#N)C2C=CC(C2)N1OC(=O)c1ccc([N+](=O)[O-])cc1` (stereo not drawn), the T/C (dose: 50.0 mg/kg/injection, schedule: Q01DX009 (ip), vehicle: saline with Tween-80) is 95 % of control; the T/C under setting [17] was 92 % of control; the T/C under setting [18] was 95 % of control.
